Test results as given in patent US10933051B2, “Carbapenem compounds and compositions for the treatment of bacterial infections” (FOB Synthesis, Inc., priority 2017, dated 2021).

Experiments:
Assay type in all cases: cell-based
Set-up in all cases: unit not given here
[1] = system: A. baumannii 4010; test: MIC by CLSI agar/broth dilution, Test Example 1; conditions: Table 2; strain produces OXA-51
Description: (§1) The MIC (minimum inhibitory concentration) was determined by the CLSI (Clinical and Laboratory Standards Institute) methods. The agar dilution method for determining antimicrobial susceptibility was carried out using Mueller Hinton-II agar and the amount of inoculation was 10^4 CFU/spot. Broth dilution tests were performed using Mueller Hinton-II broth. All assays were run with the indicated control strains, available from the ATCC (American Type Culture Collection, Rockville, Md.).

[2] = system: A. baumannii KABA 01-33; test: MIC by CLSI agar/broth dilution, Test Example 1; conditions: Table 2; strain produces OXA-2, VIM-2
Description: as §1

[3] = system: E. coli ATCC10536; test: MIC by CLSI agar/broth dilution, Test Example 1; conditions: Table 2
Description: as §1

[4] = system: K. pneumoniae ATCC10031; test: MIC by CLSI agar/broth dilution, Test Example 1; conditions: Table 2
Description: as §1

[5] = system: P. aeruginosa ATCC27853; test: MIC by CLSI agar/broth dilution, Test Example 1; conditions: Table 2
Description: as §1

[6] = system: A. baumannii FSAb-029; test: Antimicrobial Susceptibility Test (CLSI), Test Example 3; conditions: Table 6; strain produces OXA-2, IMP-1
Description: (§2) Antimicrobial Susceptibility Test was performed by the CLSI (Clinical and Laboratory Standards Institute) methods. The agar dilution method for determining antimicrobial susceptibility was carried out using Mueller Hinton-II agar and the amount of inoculation was 10^4CFU/spot. Broth dilution tests were performed using the Mueller Hinton-II broth. All assays were run with the indicated control strains, available from the ATCC (American Type Culture Collection, Rockville, Md.).

[7] = system: A. baumannii FSAb-039; test: as above; conditions: Table 6; strain produces OXA-51
Description: as §2

[8] = system: A. baumannii FSAb-056; test: as above; conditions: Table 6; strain produces OXA-23, 51
Description: as §2

[9] = system: A. baumannii FSAb-141; test: as above; conditions: Table 6; strain produces PER-1, OXA-23, 51, 66
Description: as §2

[10] = system: E. coli FSEco-054; test: as above; conditions: Table 6; strain produces ESBL
Description: as §2

[11] = system: K. pneumoniae BAA-1904; test: as above; conditions: Table 6; strain produces KPC-3
Description: as §2

[12] = system: P. aeruginosa FSPa-102; test: as above; conditions: Table 6; strain produces IMP-1
Description: as §2

[13] = system: P. aeruginosa FSPa-141; test: as above; conditions: Table 6; strain produces VIM-2
Description: as §2

SMILES | MIC (minimum inhibitory concentration), A. baumannii 4010 [1] | MIC (minimum inhibitory concentration), A. baumannii KABA 01-33 [2] | MIC (minimum inhibitory concentration), E. coil ATCC10536 [3] | MIC (minimum inhibitory concentration), K. pneumoniae ATCC10031 [4] | MIC (minimum inhibitory concentration), P. aeruginosa ATCC27853 [5] | antimicrobial susceptibility, Ab FSAb-029 [6] | antimicrobial susceptibility, Ab FSAb-039 [7] | antimicrobial susceptibility, Ab FSAb-056 [8] | antimicrobial susceptibility, Ab FSAb-141 [9] | antimicrobial susceptibility, Ec FSEco-054 [10] | antimicrobial susceptibility, Kp BAA-1904 [11] | antimicrobial susceptibility, Pa FSPa-102 [12] | antimicrobial susceptibility, Pa FSPa-141 [13]
C[C@@H](O)[C@H]1C(=O)N2C(C(=O)O)=C(CN(C)CC(=O)NCCc3ccc(O)c(O)c3)[C@H](C)[C@H]12 [Compound 22] | >32 | 32 | 2 | 0.5 | >32 | – | – | – | – | – | – | – | –
C[C@@H](O)[C@H]1C(=O)N2C(C(=O)O)=C(CN(C)CC(=O)NCc3cc(=O)c(O)co3)[C@H](C)[C@H]12 [Compound 27] | 8 | 16 | 0.063 | 0.063 | 16 | – | – | – | – | – | – | – | –
C[C@@H](O)[C@H]1C(=O)N2C(C(=O)O)=C(CN(C)CCNC(=O)CCc3ccc(O)c(O)c3Cl)[C@H](C)[C@H]12 [Compound 23] | >32 | 16 | 8 | 2 | >32 | – | – | – | – | – | – | – | –
C[C@@H](O)[C@H]1C(=O)N2C(C(=O)O)=C(CN(CCCNC(=O)c3cccc(O)c3O)CCNC(=O)c3cccc(O)c3O)[C@H](C)[C@H]12 [Compound 112] | – | – | – | – | – | 4 | 8 | 32 | 4 | 8 | >32 | 16 | >32
C[C@@H](O)[C@H]1C(=O)N2C(C(=O)O)=C(CN(CCCNC(=O)c3ccc(O)c(O)c3)CCNC(=O)c3ccc(O)c(O)c3)[C@H](C)[C@H]12 [Compound 109] | – | – | – | – | – | 1 | 2 | 4 | 2 | 2 | >32 | 4 | 4
C[C@@H](O)[C@H]1C(=O)N2C(C(=O)O)=C(CN(C)CCNC(=O)c3cc(=O)c(O)cn3O)[C@H](C)[C@H]12 [Compound 25] | 16 | 8 | 0.5 | 0.25 | 32 | – | – | – | – | – | – | – | –
C[C@@H](O)[C@H]1C(=O)N2C(C(=O)O)=C(CN(C)CC(=O)NCCNC(=O)c3ccc(O)c(O)c3)[C@H](C)[C@H]12 [Compound 20] | 16 | 4 | 0.5 | 0.25 | 16 | – | – | – | – | – | – | – | –
C[C@@H](O)[C@H]1C(=O)N2C(C(=O)[O-])=C(C[N+](C)(CCCNC(=O)c3ccc(O)c(O)c3F)CCCNC(=O)c3ccc(O)c(O)c3F)[C@H](C)[C@H]12 [Compound 114] | – | – | – | – | – | 1 | 32 | 8 | 2 | 2 | >32 | 4 | 4
C[C@@H](O)[C@H]1C(=O)N2C(C(=O)O)=C(CN(CCCNC(=O)c3ccc(O)c(O)c3F)CCNC(=O)c3ccc(O)c(O)c3F)[C@H](C)[C@H]12 [Compound 102] | – | – | – | – | – | 0.25 | 1 | 4 | 0.5 | 1 | >32 | 1 | 2
C[C@@H](O)[C@H]1C(=O)N2C(C(=O)O)=C(CN(CCCNC(=O)c3ccc(O)c(O)c3Cl)CCNC(=O)c3ccc(O)c(O)c3Cl)[C@H](C)[C@H]12 [Compound 106] | – | – | – | – | – | 0.25 | 1 | 2 | 0.5 | 1 | >32 | 1 | 1
C[C@@H](O)[C@H]1C(=O)N2C(C(=O)O)=C(CN(C)CCNC(=O)c3ccc(O)c(O)c3)[C@H](C)[C@H]12 [Compound 8] | 8 | 4 | 1 | 0.5 | >32 | – | – | – | – | – | – | – | –
C[C@@H](O)[C@H]1C(=O)N2C(C(=O)O)=C(CN(CCCNC(=O)c3ccc(O)c(O)c3F)CCCNC(=O)c3ccc(O)c(O)c3F)[C@H](C)[C@H]12 [Compound 103] | – | – | – | – | – | 0.25 | 1 | 4 | 1 | 1 | >32 | 2 | 8
C[C@@H](O)[C@H]1C(=O)N2C(C(=O)O)=C(CN(CCCCNC(=O)c3ccc(O)c(O)c3F)CCCNC(=O)c3ccc(O)c(O)c3F)[C@H](C)[C@H]12 [Compound 104] | – | – | – | – | – | 0.5 | 2 | 4 | 1 | 1 | >32 | 2 | 4
C[C@@H](O)[C@H]1C(=O)N2C(C(=O)O)=C(CN(CCCNC(=O)c3ccc(O)c(O)c3Cl)CCCNC(=O)c3ccc(O)c(O)c3Cl)[C@H](C)[C@H]12 [Compound 107] | – | – | – | – | – | 0.25 | 1 | 2 | 0.5 | 0.5 | >32 | 1 | 1
COc1ccc(C(=O)NCCN(C)CC2=C(C(=O)O)N3C(=O)[C@H]([C@@H](C)O)[C@H]3[C@H]2C)c(Cl)c1OC [Compound 15] | >32 | >32 | 32 | 1 | >32 | – | – | – | – | – | – | – | –
C[C@@H](O)[C@H]1C(=O)N2C(C(=O)O)=C(CN(CCNC(=O)c3ccc(O)c(O)c3Cl)CCNC(=O)c3ccc(O)c(O)c3Cl)[C@H](C)[C@H]12 [Compound 105] | – | – | – | – | – | 0.5 | 2 | 2 | 0.5 | 1 | 16 | 1 | 0.5
COc1ccc(C(=O)NCCCN(CCCNC(=O)c2ccc(OC)c(OC)c2F)CC2=C(C(=O)O)N3C(=O)[C@H]([C@@H](C)O)[C@H]3[C@H]2C)c(F)c1OC [Compound 120] | – | – | – | – | – | >32 | >32 | >32 | >32 | >32 | >32 | >32 | >32
